{
  "source": "patent US20090076201A1",
  "about": "“(METH) ACRYLOYLOXYTETRAHYDROFURANS AND PROCESS FOR PRODUCTION THEREOF” (Mitsubishi Chemical Corporation, priority 2005, published 2009)",
  "assay": "Solubility test in heptane and aqueous solvents at 26° C.",
  "settings": "grams of solute dissolved in 100 g of solvent",
  "method": "A solubility test of erythritan monomethacrylate (HOTHFMA) in aqueous solvents shown in the following table was carried out at a temperature of 26° C. In this connection, for the purpose of comparison, data on tetrahydrofurfuryl methacrylate (TFMA) and α-methacryloyl-γ-butyrolactone (GBLMA) are also shown. The numeric values in the table represent grams of individual solutes dissolved in 100 g of each solvent.",
  "data": [
    {"smiles": "C=C(C)C(=O)OC1COCC1O", "note": "(stereo not drawn) [HOTHFMA, 3-methacryloyloxy-4-hydroxytetrahydrofuran]", "values": [
      {"measurement": "Solubility (26° C.) in H2O", "setting": "solvent H2O", "value": ">395", "unit": "g/100 g solv."},
      {"measurement": "Solubility (26° C.) in H2O/MeOH 4/1 (wt)", "setting": "solvent H2O/MeOH 4/1 (wt)", "value": ">353", "unit": "g/100 g solv."},
      {"measurement": "Solubility (26° C.) in Heptane", "setting": "solvent heptane", "value": 1.74, "unit": "g/100 g solv."}
    ]}
  ]
}
